Results from paper PMC6131557, “Selective Cytotoxicity of Dihydroorotate Dehydrogenase Inhibitors to Human Cancer Cells Under Hypoxia and Nutrient-Deprived Conditions” (Frontiers in Pharmacology, 2018).
Read-outs that look alike come from different tables or passages of the source.

Columns and labels:
[1] = molecular target: Complex II–III; assay: Succinate-cytochrome c reductase (complexes II–III) activity, bovine mitochondria; type: biochemical
Procedure: (§1) Recombinant human DHODH was purified, crystallized, and assayed as previously described ([Inaoka et al., 2016]) without modification. Bovine mitochondrial fractions were prepared as previously described ([Kita et al., 1988]) and NADH dehydrogenase (complex I), succinate:quinone reductase (complex II), quinol oxidase (complexes III–IV), NADH-cytochrome c reductase (complexes I–III), and succinate-cytochrome c (complexes II–III) activities were assayed following an established method ([Takamiya et al., 1986]; [Miyadera et al., 2001]; [Matsumoto et al., 2008]; [Kido et al., 2010]; [Nihashi et al., 2017]).

[2] = system: Complex I; assay: NADH dehydrogenase (complex I) activity, bovine mitochondria; type: biochemical; conditions: at 5 μM
Procedure: as §1

[3] = molecular target: T1, human dihydroorotate dehydrogenase (HsDHODH) (Homo sapiens, UniProt Q02127); assay: Inhibition of recombinant human DHODH enzyme activity; type: biochemical; conditions: for IC50: recombinant human DHODH
T1 construct: made in house

[4] = system: mammalian complex III; design: method as in Berry et al., 2010; conditions: ref Berry et al., 2010; read-out: IC50 against mammalian complex III; cited from earlier work
[5] = molecular target: T2, Complex II (Bos taurus, UniProt P35720+Q3T189+Q95123); assay: Succinate:quinone reductase (complex II) activity, bovine mitochondria; type: biochemical
T2 construct: from tissue; host or cells: bovine mitochondrial fraction / sub-mitochondrial particles

[6] = molecular target: T3, Complex III (Bos taurus, UniProt P00157); assay: Quinol oxidase (complex III) activity, bovine mitochondria; type: biochemical; conditions: ubiquinol oxidase activity
T3 construct: from tissue; host or cells: bovine mitochondrial fraction / sub-mitochondrial particles

[7] = molecular target: Complexes I–III; assay: NADH-cytochrome c reductase (complexes I–III) activity, bovine mitochondria; type: biochemical
Procedure: as §1

[8] = system: OVCAR-5; assay: 39-cancer cell panel assay: OVCAR-5; type: cell-based; conditions: Homo sapiens, Ov
[9] = system: NCI-H226; assay: 39-cancer cell panel assay: NCI-H226; type: cell-based; conditions: Homo sapiens, Lu
[10] = system: DLD-1 cells; assay: Cytotoxicity assay (Cell Counting Kit-8 / WST-8) on DLD-1 cells; type: cell-based, human; conditions: Homo sapiens
Procedure: (§2) For hypoxia and nutrient-deprived culture conditions, cells were incubated under 1% oxygen in glucose and glutamine-free DMEM (Gibco) without FBS.
(§3) DLD-1 or HDF cells were seeded at 2.5 × 10^4 cells/well on a 96-well plate with normal medium, and cultured overnight under normal culture condition. The cells were washed with PBS and the medium was replaced to either normal medium or glucose and glutamine-free DMEM without FBS. Test compounds or DMSO as a control were added to the wells. The cells in normal medium were cultured under normal culture conditions, while cells in nutrient-deprived medium were cultured under hypoxia condition. After 24 or 48 h incubation, the cells were washed with PBS, 100 μl of fresh normal medium, and 10 μl of Cell Counting Kit-8 solution (Donjindo, Japan) was added to each well. After 3 h incubation under normal culture condition, the absorbance was measured at 450 nm using SpectraMax M2e-TUY microplate reader (Molecular Devices). Cell viability of test wells was calculated based on absorbance of control wells containing DMSO according to manufacturer’s protocol.

[11] = system: MKN28; assay: 39-cancer cell panel assay: MKN28; type: cell-based; conditions: Homo sapiens, MKN-28, St
[12] = system: NCI-H522; assay: 39-cancer cell panel assay: NCI-H522; type: cell-based; conditions: Homo sapiens, Lu
[13] = system: SF-268; assay: 39-cancer cell panel assay: SF-268; type: cell-based; conditions: Homo sapiens, CNS
[14] = system: HCT-15; assay: 39-cancer cell panel assay: HCT-15; type: cell-based; conditions: Homo sapiens, Co
[15] = system: SF-295; assay: 39-cancer cell panel assay: SF-295; type: cell-based; conditions: Homo sapiens, CNS
[16] = system: SF-539; assay: 39-cancer cell panel assay: SF-539; type: cell-based; conditions: Homo sapiens, CNS
[17] = system: SNB-75; assay: 39-cancer cell panel assay: SNB-75; type: cell-based; conditions: Homo sapiens, CNS
[18] = system: MKN7; assay: 39-cancer cell panel assay: MKN7; type: cell-based; conditions: Homo sapiens, MKN-7, St
[19] = system: BSY-1; assay: 39-cancer cell panel assay: BSY-1; type: cell-based; conditions: Homo sapiens, Br
[20] = system: OVCAR-3; assay: 39-cancer cell panel assay: OVCAR-3; type: cell-based; conditions: Homo sapiens, Ov
[21] = system: PC-3; assay: 39-cancer cell panel assay: PC-3; type: cell-based; conditions: Homo sapiens, Pro
[22] = system: MKN45; assay: 39-cancer cell panel assay: MKN45; type: cell-based; conditions: Homo sapiens, MKN-45, St
[23] = system: NCI-H23; assay: 39-cancer cell panel assay: NCI-H23; type: cell-based; conditions: Homo sapiens, Lu
[24] = system: SNB-78; assay: 39-cancer cell panel assay: SNB-78; type: cell-based; conditions: Homo sapiens, CNS
[25] = system: OVCAR-4; assay: 39-cancer cell panel assay: OVCAR-4; type: cell-based; conditions: Homo sapiens, Ov
[26] = system: DMS114; assay: 39-cancer cell panel assay: DMS114; type: cell-based; conditions: Homo sapiens, DMS-114, Lu
[27] = system: MKN1; assay: 39-cancer cell panel assay: MKN1; type: cell-based; conditions: Homo sapiens, MKN-1, St
[28] = system: HBC-5; assay: 39-cancer cell panel assay: HBC-5; type: cell-based; conditions: Homo sapiens, HBC5, Br
[29] = system: RXF-631L; assay: 39-cancer cell panel assay: RXF-631L; type: cell-based; conditions: Homo sapiens, Re
[30] = system: LOX-IMVI; assay: 39-cancer cell panel assay: LOX-IMVI; type: cell-based; conditions: Homo sapiens, Me
[31] = system: DU-145; assay: 39-cancer cell panel assay: DU-145; type: cell-based; conditions: Homo sapiens, Pro
[32] = system: HDF cells; assay: Cytotoxicity assay (Cell Counting Kit-8 / WST-8) on HDF cells; type: cell-based; conditions: Homo sapiens
Procedure: as §2, §3

[33] = system: KM-12; assay: 39-cancer cell panel assay: KM-12; type: cell-based, human; conditions: Co
[34] = system: MKN74; assay: 39-cancer cell panel assay: MKN74; type: cell-based; conditions: Homo sapiens, MKN-74, St
[35] = system: DMS273; assay: 39-cancer cell panel assay: DMS273; type: cell-based; conditions: Homo sapiens, DMS-273, Lu
[36] = system: ACHN; assay: 39-cancer cell panel assay: ACHN; type: cell-based; conditions: Homo sapiens, Re
[37] = system: U251; assay: 39-cancer cell panel assay: U251; type: cell-based; conditions: Homo sapiens, U-251, CNS
[38] = system: HBC-4; assay: 39-cancer cell panel assay: HBC-4; type: cell-based; conditions: Homo sapiens, HBC4, Br
[39] = system: MDA-MB-231; assay: 39-cancer cell panel assay: MDA-MB-231; type: cell-based; conditions: Homo sapiens, Br
[40] = system: HT-29; assay: 39-cancer cell panel assay: HT-29; type: cell-based; conditions: Homo sapiens, Co
[41] = system: St-4; assay: 39-cancer cell panel assay: St-4; type: cell-based; conditions: Homo sapiens
[42] = system: MCF-7; assay: 39-cancer cell panel assay: MCF-7; type: cell-based; conditions: Homo sapiens, MCF7, Br
[43] = system: OVCAR-8; assay: 39-cancer cell panel assay: OVCAR-8; type: cell-based; conditions: Homo sapiens, Ov
[44] = system: HCC2998; assay: 39-cancer cell panel assay: HCC2998; type: cell-based; conditions: Homo sapiens, HCC 2998, Co
[45] = system: SK-OV-3; assay: 39-cancer cell panel assay: SK-OV-3; type: cell-based; conditions: Homo sapiens
[46] = system: HCT-116; assay: 39-cancer cell panel assay: HCT-116; type: cell-based; conditions: Homo sapiens, Co
[47] = system: NCI-H460; assay: 39-cancer cell panel assay: NCI-H460; type: cell-based; conditions: Homo sapiens, Lu
[48] = system: A549; assay: 39-cancer cell panel assay: A549; type: cell-based; conditions: Homo sapiens, Lu
[49] = purified enzyme fixed at 10 nM, read-out: IC50 (nM), inhibition of human DHODH
[50] = read-out: IC50 (μM) DLD-1 (24 h) Hypoxia nutrient (-), DLD-1, 24 h, hypoxia (1% oxygen), nutrient (-)
[51] = read-out: IC50 (μM) DLD-1 (24 h) Normoxia nutrient (+), DLD-1, 24 h, normoxia, nutrient (+)
[52] = DLD-1, 48 h, hypoxia (1% oxygen), nutrient (-), read-out: IC50 (μM) DLD-1 (48 h) Hypoxia nutrient (-)
[53] = DLD-1, 48 h, normoxia, nutrient (+), read-out: IC50 (μM) DLD-1 (48 h) Normoxia nutrient (+)
[54] = read-out: IC50 (μM) HDF (24 h) Hypoxia nutrient (-), hypoxia (1% oxygen), nutrient (-)
[55] = read-out: IC50 (μM) HDF (24 h) Normoxia nutrient (+), normoxia, nutrient (+)

T2 sequence (P31039 45-665 partner limits assumed): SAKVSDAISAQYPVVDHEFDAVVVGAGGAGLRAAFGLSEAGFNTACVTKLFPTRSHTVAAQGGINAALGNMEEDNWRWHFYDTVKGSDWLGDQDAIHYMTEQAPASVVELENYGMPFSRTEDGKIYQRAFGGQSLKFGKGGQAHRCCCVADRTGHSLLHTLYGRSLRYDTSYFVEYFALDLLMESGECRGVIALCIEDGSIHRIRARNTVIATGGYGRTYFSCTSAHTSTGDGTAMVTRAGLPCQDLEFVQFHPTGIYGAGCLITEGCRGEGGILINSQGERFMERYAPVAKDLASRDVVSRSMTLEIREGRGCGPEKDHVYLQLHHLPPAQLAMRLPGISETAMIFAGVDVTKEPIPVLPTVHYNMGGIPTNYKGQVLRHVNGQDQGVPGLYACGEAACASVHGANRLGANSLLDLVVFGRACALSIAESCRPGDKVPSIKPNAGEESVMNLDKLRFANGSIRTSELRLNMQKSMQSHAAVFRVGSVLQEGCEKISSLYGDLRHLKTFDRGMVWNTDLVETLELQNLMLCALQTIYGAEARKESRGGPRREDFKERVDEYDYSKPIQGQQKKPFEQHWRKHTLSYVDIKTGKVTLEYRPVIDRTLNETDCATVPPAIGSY
T2 sequence (Q3T189 29-280): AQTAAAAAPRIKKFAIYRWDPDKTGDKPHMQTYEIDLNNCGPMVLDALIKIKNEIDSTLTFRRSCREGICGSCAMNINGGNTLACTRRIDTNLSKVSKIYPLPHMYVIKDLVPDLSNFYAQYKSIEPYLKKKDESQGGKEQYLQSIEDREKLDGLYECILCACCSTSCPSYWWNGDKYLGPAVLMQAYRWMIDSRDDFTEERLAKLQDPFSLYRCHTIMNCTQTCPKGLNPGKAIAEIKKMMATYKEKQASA
T2 sequence (P35720 30-169): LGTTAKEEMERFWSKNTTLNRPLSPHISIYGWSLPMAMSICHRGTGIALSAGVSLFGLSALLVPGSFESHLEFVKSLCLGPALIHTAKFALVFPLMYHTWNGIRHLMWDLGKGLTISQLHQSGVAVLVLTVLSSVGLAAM
T2 sequence (Q95123 56-158): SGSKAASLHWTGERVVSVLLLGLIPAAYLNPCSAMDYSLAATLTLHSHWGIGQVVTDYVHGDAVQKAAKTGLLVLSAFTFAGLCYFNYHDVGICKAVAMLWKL
T1 sequence (Q02127 whole entry): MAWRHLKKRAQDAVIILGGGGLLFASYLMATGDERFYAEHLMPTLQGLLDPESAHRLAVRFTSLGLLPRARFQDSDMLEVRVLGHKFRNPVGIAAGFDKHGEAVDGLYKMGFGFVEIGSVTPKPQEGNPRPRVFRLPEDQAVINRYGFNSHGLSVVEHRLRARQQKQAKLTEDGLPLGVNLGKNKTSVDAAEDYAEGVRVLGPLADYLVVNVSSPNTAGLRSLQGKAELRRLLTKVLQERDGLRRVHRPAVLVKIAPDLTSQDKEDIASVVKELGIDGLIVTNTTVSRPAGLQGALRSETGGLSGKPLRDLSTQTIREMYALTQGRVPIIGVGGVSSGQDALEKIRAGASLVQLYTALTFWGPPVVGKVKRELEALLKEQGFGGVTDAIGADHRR

CC(/C=C/[C@@]1(C)[C@H](C)CCC(=O)[C@@H]1C)=C\Cc1c(O)c(Cl)c(C)c(C=O)c1O [Compound 10, Ascochlorin]
IC50 [1]: 0.0069 ± 0.0002 µM
Inhibition (%) Complex I [2]: 6.8 ± 4.1%
inhibition at 1 µM ([3]; at 1,000 nM, read-out: Inhibition of HsDHODH activity (value in parentheses)): 33%
IC50 ([3]; Table 6, read-out: IC50 (μM) HsDHODH): 2.3 ± 1.9 µM
IC50 [3, 49]: > 1 µM
IC50 [4]: 0.013 µM
inhibition at 5 µM [5]: 3.6 ± 8.5%
inhibition at 5 µM [6]: 94 ± 2.4%
IC50 [7]: 0.0033 ± 0.0001 µM

COC(=O)/C(C)=C/CC/C(C)=C/Cc1c(O)c(Cl)c(C)c(C=O)c1O [Compound 9]
GI50 [8]: 12 µM
GI50 [9]: 13 µM
IC50 [1]: 5.7 ± 0.37 µM
IC50 [10, 50]: 1.6 ± 0.42 µM
IC50 [10, 51]: > 100 µM
IC50 [10, 52]: 0.67 ± 0.066 µM
IC50 [10, 53]: > 100 µM
GI50 [11]: 12 µM
GI50 [12]: 5.3 µM
GI50 [13]: 8.1 µM
GI50 [14]: 0.83 µM
GI50 [15]: 11 µM
GI50 [16]: 0.54 µM
GI50 [17]: 9.7 µM
GI50 [18]: 13 µM
Inhibition (%) Complex I [2]: 7.6 ± 4.2%
GI50 [19]: 27 µM
GI50 [20]: 5.3 µM
GI50 [21]: 22 µM
IC50 [3, 49]: ~0.005 µM
GI50 [22]: 14 µM
GI50 [23]: 7.8 µM
GI50 [24]: 8.8 µM
GI50 [25]: 11 µM
GI50 [26]: 15 µM
GI50 [27]: 14 µM
inhibition at 5 µM [5]: 5.3 ± 4.1%
GI50 [28]: 28 µM
GI50 [29]: 8.4 µM
GI50 [30]: 2.1 µM
GI50 [31]: 10 µM
IC50 [32, 54]: 3.1 ± 0.19 µM
IC50 [32, 55]: > 100 µM
GI50 (μM) KM-12 [33]: 6.4 µM
GI50 [34]: 14 µM
inhibition at 5 µM [6]: > 80%
GI50 [35]: 3 µM
GI50 [36]: 9.9 µM
GI50 [37]: 0.97 µM
GI50 [38]: 5.6 µM
GI50 [39]: 14 µM
GI50 [40]: 6.5 µM
GI50 [41]: 7.5 µM
GI50 [42]: 7.3 µM
GI50 [43]: 9.1 µM
GI50 [44]: 17 µM
GI50 [45]: 11 µM
GI50 [46]: 2.5 µM
IC50 [7]: 1 ± 0.02 µM
GI50 [47]: 4.3 µM
GI50 [48]: 4.7 µM

CC(=O)OC(C)/C(C)=C/CC/C(C)=C/Cc1c(O)c(Cl)c(C)c(C=O)c1O (stereo not drawn) [Compound 7]
GI50 [8]: 18 µM
GI50 [9]: 11 µM
IC50 [1]: 2.3 ± 0.16 µM
IC50 [10, 50]: 2 ± 0.19 µM
IC50 [10, 51]: > 100 µM
IC50 [10, 52]: 0.95 ± 0.059 µM
IC50 [10, 53]: > 100 µM
GI50 [11]: 11 µM
GI50 [12]: 4.9 µM
GI50 [13]: 5 µM
GI50 [14]: 0.58 µM
GI50 [15]: 8 µM
GI50 [16]: 0.27 µM
GI50 [17]: 22 µM
GI50 [18]: 16 µM
Inhibition (%) Complex I [2]: 15 ± 2.3%
GI50 [19]: 20 µM
GI50 [20]: 13 µM
GI50 [21]: 15 µM
IC50 [3, 49]: 0.0064 ± 0.0002 µM
GI50 [22]: 20 µM
GI50 [23]: 15 µM
GI50 [24]: 21 µM
GI50 [25]: 27 µM
GI50 [26]: 14 µM
GI50 [27]: 16 µM
inhibition at 5 µM [5]: 3.2 ± 6.7%
GI50 [28]: 25 µM
GI50 [29]: 7.5 µM
GI50 [30]: 1.5 µM
GI50 [31]: 14 µM
IC50 [32, 54]: 3.4 ± 0.36 µM
IC50 [32, 55]: > 100 µM
GI50 (μM) KM-12 [33]: 5.7 µM
GI50 [34]: 11 µM
inhibition at 5 µM [6]: > 80%
GI50 [35]: 0.91 µM
GI50 [36]: 9.9 µM
GI50 [37]: 1.5 µM
GI50 [38]: 5 µM
GI50 [39]: 11 µM
GI50 [40]: 3.2 µM
GI50 [41]: 13 µM
GI50 [42]: 4.9 µM
GI50 [43]: 8.8 µM
GI50 [44]: 13 µM
GI50 [45]: 12 µM
GI50 [46]: 1.5 µM
IC50 [7]: 0.46 ± 0.01 µM
GI50 [47]: 0.94 µM
GI50 [48]: 3.3 µM
